# Laboratory results: patent US20070207975A1, “Materials and methods for treating and preventing Her-2/neu overexpressing, FAS-elevated cancer cells” (EVANSTON NORTHWESTERN HEALTHCARE, priority 2006, published 2007)
# Where two headings read alike, the source gives them in different places.
# Assays:
# p185^Her-2/neu [1] = test: In situ immunofluorescent staining of p185Her-2/neu; format: cell-based, human; conditions: BT-474; 48 hours
# Source text: FIG. 2. Exogenous supplementation with OA synergistically enhances trastuzumab-induced down-regulation of p185^Her-2/neu. […] The amount of cell surface-associated p185^Her-2/neu was quantified by flow cytometric analyses using a specific antibody against the extracellular domain of p185^Her-2/neu (Ab-5), as described herein. The mean fluorescence signal±SD (n=3) was quantified using the geo mean fluorescence (GM) parameter provided with the Cell Quest Software (Becton Dickinson). […] After labeling, cells were washed thoroughly, and localization of p185^Her-2/neu was detected by indirect immunofluorescence by incubating with FITC-conjugated anti-mouse IgG. After counterstaining with DAPI, cells were examined and photographed using a Zeiss fluorescent microscope equipped with a built-in camera. […] Similar results were obtained in three independent experiments. […] Similar results were obtained in three independent experiments. Cells were seeded at a density of 1×10^4 cells/well in a four-well chamber slide (Nalge Nunc International, Rochester, N.Y.). […] Indirect immunofluorescence was recorded on a Zeiss microscope. […] Thereafter, p185^Her-2/neu cellular localization was assessed using the anti-erbB2, Ab-3 mouse monoclonal antibody (Oncogene Research Products), which is directed against the C-terminal 14 amino acids of p185^Her-2/neu. […]
# [2] = system: Wild-type Her-2/neu promoter; test: Luciferase reporter driven by wild-type Her-2/neu promoter, transient transfection; format: cell-based, human; conditions: for inhibition at 20 µM: Homo sapiens, OA 20 μM, 24 hours, read-out: reduction (inhibition) of Her-2/neu gene promoter activity; for Luciferase activity relative to vehicle-treated wild-type promoter cells: GLA 10 μg/mL for 24 hours
# Procedure: FIG. 11. Luciferase activity in transiently transfected cells. Luciferase activity was assayed in cells that were transiently transfected with a pGL2-Luc construct containing a luciferase reporter gene under the control of a Her-2/neu promoter fragment containing a wild-type (top panel, left) or mutant (top panel, right) PEA3 binding site as described herein. The magnitude of activation in Her-2/neu promoter-luciferase-transfected cells was determined after normalization of the luciferase activity obtained in cells co-transfected with equivalent amounts of the empty pGL2-Luciferase vector lacking the Her-2/neu promoter (-luciferase) and the internal control plasmid pRL-CMV. This control value was used to calculate the relative change in the transcriptional activities of Her-2/neu-promoter-luciferase-transfected cells in response to treatments after normalization to pRL-CMV. The activity of the wild-type promoter in untreated control cells was defined as 100%. […] One-factor ANOVA was used to analyzed differences in the percentages of luciferase activity between the various treatment groups.
# The luciferase activities reported in Table 3 were assayed in cells that were transiently transfected with a pGL2-luciferase (Promega Inc., Madison, Wis.) construct containing a luciferase reporter gene under the control of a Her-2/neu promoter fragment containing a wild-type or mutant PEA3 binding site, as previously described by Xing et al. (36), incorporated herein by reference. […] Luciferase activity from cell extracts was detected with a Luciferase Assay System (Promega Inc.).
# To conduct Her-2/neu promoter activity assays, cells were initially transfected using FuGENE 6 transfection reagent (Roche Biochemicals, Indianapolis, Ind.) as directed by the manufacturer. Overnight-serum starved cancer cells seeded into 24-well plates (˜5×10^4 cells/well) were transfected in low-serum (0.1% FBS) media with 1.5 μg/well of the pGL2-luciferase (Promega, Madison, Wis.) construct containing a luciferase reporter gene driven by either an intact (Her-2/neu wild-type PEA3-binding site-luciferase) or by a mutated (Her-2/neu mutated PEA3-binding site-luciferase) Her-2/neu promoter fragment along with […] of the internal control plasmid pRL-CMV, which was used to correct for transfection efficiency. […] Approximately 24 hours after treatments, luciferase activities from cell extracts were detected with a luciferase Assay System following manufacturer's instructions (Promega, Madison, Wis., USA) using a Victor^2™ Multilabel Counter (Perkin-Elmer Life Sciences).
# [3] = system: phospho-MAPK and phospho-Ser^473 AKT; test: Western blot of phospho-MAPK and phospho-AKT; format: cell-based, human; conditions: BT-474; 48 hours; OA 5 μM, trastuzumab 10 μg/ml in combination
# Source text: Densitometric values of protein bands were quantified using Scion Imaging Software (Scion Corp., Frederick, Md.).
# SK-Br3 and BT-474 cells = test: Anchorage-dependent cell proliferation (Coulter Counter); format: cell-based, human; conditions: low concentrations of OA, increasing concentrations of trastuzumab, or combination, 6 days
# Procedure: (A) Left panel: exponentially growing SK-Br3 and BT-474 cells were trypsinized and plated in 24-well plates at a density of 10,000 cells/well. Cells were incubated for 24 hours to allow for attachment and starved for serum overnight, after which a zero time point was determined. […] Cells were counted at days 0, 3 and 6 with a Coulter Counter. All assays were performed three times in triplicate. The data are presented as mean number of cells×10^4/well (columns)±SD (bars) after 6 days treatment. […] For each pair of columns, the height of the columns on the left represents the sum of the effect of each agent alone and, therefore, the expected percentage of cell growth inhibition if their effect was additive when used in combination. […] Colony formation (≧50 μm) was assessed using a colony counter. Each experimental value represents the mean colony number (columns)±SD (bars) from three separate experiments in which triplicate dishes were counted. […]
# SK-Br3 and BT-474 cells exponentially growing in IMEM-5% FBS were trypsinized and re-plated in 24-well plates at a density of 10,000 cells/well. Cells were incubated for 24 hours to allow for attachment, after which a zero time point was determined. […] Cell number was determined at days 0, 3 and 6 with a Coulter Counter (Coulter Electronics, Inc., Hialeah, Fla.). […]
# p185^Her-2/neu [4] = conditions: cultured breast cancer cells; exogenous GLA supplementation; reference (16); cited from earlier work
SMILES,p185^Her-2/neu-associated membrane (cell surface) staining (p185^Her-2/neu [1]),"inhibition at 20 µM ([2]; NCI-N87, 24 h, NCI-N87) [%]","inhibition at 20 µM ([2]; SK-BR-3, 24 h, SK-Br3) [%]","inhibition at 20 µM ([2]; SK-OV-3, 24 h, SK-OV3) [%]","reduction of Her-2/neu gene promoter activity ([2]; MCF-7/Her2-18 transfectants, OA supplementation)","reduction of wild-type Her-2/neu promoter luciferase reporter activity ([2]; MCF-7/neo cells, OA treatment)","reduction of Her-2/neu promoter activity ([2]; MCF-7 breast cancer cells (physiological Her-2/neu levels), OA) [%]","active MAPK and active AKT (phospho-MAPK, phospho-Ser^473 AKT) [3]",anchorage-dependent cell growth (SK-Br3 and BT-474 cells),Luciferase activity relative to vehicle-treated wild-type promoter cells ([2]; BT-474),Luciferase activity relative to vehicle-treated wild-type promoter cells ([2]; MDA-MB-231),Luciferase activity relative to vehicle-treated wild-type promoter cells ([2]; MDA-MB-453),Luciferase activity relative to vehicle-treated wild-type promoter cells ([2]; NCI-N87),Luciferase activity relative to vehicle-treated wild-type promoter cells ([2]; SK-Br3),Luciferase activity relative to vehicle-treated wild-type promoter cells ([2]; SK-OV3),proteolytic cleavage of the extracellular domain of p185^Her-2/neu (p185^Her-2/neu [4])
"CCCCCCCCC=CCCCCCCCC(=O)O [OA, 9-octadecenoic acid]",markedly reduced,55,≤ 56,≤ 75,up to 22%,up to 12%,< 20,inhibited active MAPK and active AKT,no notable effects,–,–,–,–,–,–,–
"CCCCCC=CCC=CCC=CCCCCC(=O)O [GLA, 6,9,12-octadecatrienoic acid]",–,–,–,–,–,–,–,–,–,35% (95% CI = 33-37%),80% (95% CI = 75-85%),26% (95% CI = 25-27%),38% (95% CI = 34-42%),54% (95% CI = 51-57%),21% (95% CI = 16-26%),significantly diminished
